Experimental data published in patent publication US8039668B2, “Naphthalene-based inhibitors of anti-apoptotic proteins” (Burnham Institute for Medical Research, priority 2008, dated 2011).
Like-named read-outs stand apart in the source and are kept apart here.

Columns and labels:
Mcl-1 = Mcl-1 (Homo sapiens, UniProt Q07820); test: Competitive fluorescence polarization assay (FPA), Bim BH3 peptide; format: binding
Bcl-2 = Bcl-2 (Homo sapiens, UniProt P10415); test: as above; format: binding
BCL-XL [1] = biological target: T1, BCL-XL (Homo sapiens, UniProt Q07817); test: 1D 1H-NMR binding assay; parameters: key to 1D-^1H NMR: +++, Very Active; ++, Active; +, Mild; −, Weak; settings: for 1D-^1H NMR: BCL-XL 25 μM, compound 200 μM; for 1D ^1H-NMR Binding Assay (BCL-XL): Table 9
Experimental: By observing the aliphatic region of the spectra, binding could be readily detected due to chemical shift changes in active site methyl groups of Ile, Leu, Thr, Val or Ala (region between −0.8 and 0.3 ppm). All experiments were performed with a 600 MHz spectrometer Bruker Avance 600 equipped with four rf channels and z-axis pulse-field gradients.
Target sequence in this assay (Q07817 whole entry): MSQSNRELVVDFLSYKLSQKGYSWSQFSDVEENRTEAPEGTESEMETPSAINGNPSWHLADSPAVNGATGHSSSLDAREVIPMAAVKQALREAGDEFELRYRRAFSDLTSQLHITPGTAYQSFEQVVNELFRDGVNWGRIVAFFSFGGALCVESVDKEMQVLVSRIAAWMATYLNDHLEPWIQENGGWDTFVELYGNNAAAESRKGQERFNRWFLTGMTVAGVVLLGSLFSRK

BCL-XL [2] = biological target: T1, BCL-XL; test: Competitive fluorescence polarization assay (FPA), Bak BH3 peptide; format: binding; parameters: 100 nM GST-BCL-XL ΔTM protein
Experimental: For competitive binding assays, 100 nM GST-BCL-XL ΔTM protein was preincubated with the tested compound at varying concentrations in 47.5 μL PBS (pH=7.4) in 96-well black plates at room temperature for 10 min, then 2.5 μL of 100 nM FITC-labeled Bak BH3 peptide was added to produce a final volume of 50 μL. The wild-type and mutant Bak BH3 peptides were included in each assay plate as positive and negative controls, respectively. […] IC50 was determined by fitting the experimental data to a sigmoidal dose-response nonlinear regression model (SigmaPlot 10.0.1, Systat Software, Inc., San Jose, Calif., USA). Data reported are mean of three independent experiments±standard error (SE). […] Fluorescence polarization was measured after 10 min.
Target sequence in this assay (Q07817 1-209 limits assumed): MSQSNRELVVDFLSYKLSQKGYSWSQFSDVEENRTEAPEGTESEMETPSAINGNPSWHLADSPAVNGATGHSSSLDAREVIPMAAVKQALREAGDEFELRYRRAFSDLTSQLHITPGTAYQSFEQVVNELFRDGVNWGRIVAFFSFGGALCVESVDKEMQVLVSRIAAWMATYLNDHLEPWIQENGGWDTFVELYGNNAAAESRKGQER

[3] = test system: BP3 human B-cell lymphoma cell line; test: Annexin V-FITC and propidium iodide assay; format: cell-based; settings: for EC50: Homo sapiens, B-cell, Table 3, Annexin V-FITC and propidium iodide assay, read-out: EC50 BP3
PC3ML cells = test: Cell viability, ATP-LITE assay; format: cell-based, human; settings: Homo sapiens, PC3-ML
Experimental: (§1) The activity of the compounds against human cancer cell lines (PC3ML, H460, H1299, RS11846) were assessed by using the ATP-LITE assay (PerkinElmer). All cells were seeded in either F12 or RPMI1640 medium with 5 mM L-glutamine supplemented with 5% fetal bovine serum (Mediatech Inc.), penicillin and streptomycin (Omega). For maintenance, cells were cultured in 5% FBS. Cells plated into 96 well plates at varying initial densities depending on doubling time. H460 and H1299 plated at 2000 cells/well, A549 and PC3 at 3000 cells/well, and RS118456S at 10,000 cells/well. Compounds were diluted to final concentrations with 0.1% DMSO. Prior to dispensing compounds onto cells, fresh 5% media was placed into wells. Administration of compounds occurred 24 hours after seeding into the fresh media. Cell viability was evaluated using ATP-LITE reagent (PerkinElmer) after 72 hours of treatment. Data were normalized to the DMSO control-treated cells using Prism version 5.01 (Graphpad Software).

H1299 cell line = test: Cell viability, ATP-LITE assay; format: cell-based, human; settings: Homo sapiens
Experimental: as §1

[4] = test system: H460 human lung cell line; test: Cell viability, ATP-LITE assay; format: cell-based; settings: for EC50: Homo sapiens
Experimental: as §1

[5] = test system: human lymphoma RS11846 cell line; test: Apoptosis, Annexin V-FITC and propidium iodide assay; format: cell-based; settings: for EC50: Homo sapiens
Experimental: The apoptotic activity of the compounds against RS11846 cells was assessed by staining with Annexin V- and propidium iodide (PI). Lymphoma cell line, RS11846, was cultured in RPMI 1640 medium (Mediatech Inc., Herndon, Va. 20171) containing 10% fetal bovine serum (Mediatech Inc., Herndon, Va. 20171) and Penicillin/Streptomycin (Mediatech Inc., Herndon, Va. 20171). […] The percentage of viable cells was determined by FITC-Annexin V- and propidium iodide (PI)-labeling, using an Apoptosis Detection kit (BioVision Inc.), and analyzing stained cells by flow cytometry (FACSort; Bectin-Dickinson, Inc.; Mountain View, Calif.). Cells that were annexin-V-negative and PI-negative were considered viable.

[6] = Liver microsomal stability; format: in vitro ADME, rat; settings: Table 6; rat liver microsomes, 1 h
Text: Liver Microsomal Stability.

B6Bcl-2 transgenic mice = test system: B6Bcl-2 transgenic mice
Experimental: Transgenic mice expressing BCL-2 have been described as the B6 line. The BCL-2 transgene res a minigene version of a t(14;18) translocation in which the human BCL-2 gene is fused with the immunoglobulin heavy-chain (IgH) locus and associated IgH enhancer. The transgene was propagated on the Balb/c background.
After 24 hours, B6BCL2 mice were sacrificed by intraperitoneal injection of lethal dose of Avertin. Spleen was removed and weighed. […] Spleen tissue was fixed in z-FIX for 3 days and rinsed in PBS, and saved for histological analysis of spleen (H&E staining and TUNEL assay).

Plasma stability = format: in vitro ADME, rat; settings: Table 6; rat plasma, 1 h
Experimental: Plasma Stability. A 20 μL aliquot of a 10 mM solution in DMSO of the test compound was added to 2.0 mL of heparinized rat plasma (Lampire, P1-150N) to obtain a 100 μM final solution. The mixture was incubated for 1 h at 37.5° C. Aliquots of 100 μL were taken (0, 30 min, 1 h) and diluted with 200 μL of MeOH containing internal standard.

Bfl-1 = biological target: T2, Bfl-1 (Homo sapiens, UniProt Q16548); test: Competitive fluorescence polarization assay (FPA); format: binding
T2 sequence (Q16548 1-175): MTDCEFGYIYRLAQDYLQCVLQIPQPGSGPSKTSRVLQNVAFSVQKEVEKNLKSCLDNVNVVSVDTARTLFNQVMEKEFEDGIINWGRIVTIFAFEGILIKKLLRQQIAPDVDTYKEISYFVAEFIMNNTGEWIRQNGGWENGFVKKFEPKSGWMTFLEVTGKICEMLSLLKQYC

BCL-XL [7] = biological target: T1, BCL-XL; test: Isothermal titration calorimetry (ITC); format: binding; settings: vs Apogossypol
Experimental: Titrations were performed using a VP-ITC or ITC200 calorimeter from Microcal (Northampton, Mass.). BCL-XL was used at concentrations between 25 and 100 μM in 20 mM sodium phosphate buffer (pH 7.4) and 5-10% DMSO. Titrants were used at concentrations 10-15 fold of that of the protein in the same buffer. Titrations were carried out at 25° C. Data were analyzed using Microcal Origin software provided by the ITC manufacturer (Microcal, Northampton, Mass.).
Target sequence in this assay (Q07817 whole entry): as the sequence (Q07817 whole entry) above

RS11846 cell line = test: Cell viability, ATP-LITE assay; format: cell-based; settings: Homo sapiens, read-out: RS11846 EC50 (ATP-LITE assay)
Experimental: as §1

[8] = Table 3, ATP-LITE assay, heading: EC50 PC3ML, read-out: EC50 PC3ML
[9] = NCI-H1299, heading: EC50 H1299, Table 3, ATP-LITE assay, read-out: EC50 H1299
[10] = NCI-H460, heading: EC50 H460, Table 3, ATP-LITE assay, read-out: EC50 H460
[11] = Table 3, Annexin V-FITC and propidium iodide assay, heading: EC50 RS11846, read-out: EC50 RS11846
[12] = NCI-H1299, read-out: H1299 EC50
[13] = read-out: RS11846 EC50 (Annexin V- and propidium iodide assay), Table 9

Sequence of Bcl-2 (P10415 whole entry): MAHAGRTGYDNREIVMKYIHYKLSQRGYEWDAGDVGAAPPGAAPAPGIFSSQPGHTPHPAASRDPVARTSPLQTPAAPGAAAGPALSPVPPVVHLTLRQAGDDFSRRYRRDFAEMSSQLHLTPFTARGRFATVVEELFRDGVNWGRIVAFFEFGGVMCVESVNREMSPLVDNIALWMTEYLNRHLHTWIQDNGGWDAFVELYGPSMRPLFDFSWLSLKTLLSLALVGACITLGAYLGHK
Sequence of Mcl-1 (Q07820 whole entry): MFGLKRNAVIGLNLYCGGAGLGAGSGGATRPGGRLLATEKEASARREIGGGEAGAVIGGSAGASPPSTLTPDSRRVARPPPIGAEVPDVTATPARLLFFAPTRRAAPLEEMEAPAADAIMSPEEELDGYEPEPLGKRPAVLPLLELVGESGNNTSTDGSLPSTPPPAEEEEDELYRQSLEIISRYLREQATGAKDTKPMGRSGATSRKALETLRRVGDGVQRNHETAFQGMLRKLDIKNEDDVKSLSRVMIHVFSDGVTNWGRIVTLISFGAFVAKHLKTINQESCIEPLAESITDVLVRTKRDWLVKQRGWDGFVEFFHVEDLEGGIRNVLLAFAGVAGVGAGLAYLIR

## Cc1cc(C)c(CNC(=O)c2c(O)c(O)cc3c(O)c(-c4c(C)cc5c(C(=O)NCc6c(C)cc(C)cc6C)c(O)c(O)cc5c4O)c(C)cc23)c(C)c1 [Compound 8j, 1,1′,6,6′,7,7′-hexahydroxy-3,3′-dimethyl-N^5,N^5′-bis(2,4,6-trimethylbenzyl)-2,2′-binaphthyl-5,5′-dicarboxamide]
Mcl-1
  IC50: 1100 nM
Bcl-2
  IC50: 700 nM
BCL-XL [1]; Table 3
  1D-^1H NMR: ++
BCL-XL [2]; read-out: IC50 FPA Bcl-XL
  IC50: 800 nM

## Cc1cc2c(C(=O)O)c(O)c(O)cc2c(O)c1-c1c(C)cc2c(C(=O)O)c(O)c(O)cc2c1O [Compound 14, 1,1′,6,6′,7,7′-hexahydroxy-3,3′-dimethyl-2,2′-binaphthyl-5,5′-dicarboxylic acid]
[3]; heading: EC50 BP3
  EC50: > 30000 nM
PC3ML cells; [8]
  EC50: > 30000 nM
H1299 cell line; [9]
  EC50: > 30000 nM
BCL-XL [1]; Table 3
  1D-^1H NMR: −
[4]; [10]
  EC50: > 30000 nM
[5]; [11]
  EC50: > 30000 nM
[5]; in words
  induction of apoptosis of the RS11846 cell line: weak or no apoptosis

## Cc1cc2c(CC3CCCC3)c(O)c(O)cc2c(O)c1-c1c(C)cc2c(CC3CCCC3)c(O)c(O)cc2c1O [Compound 12c, 5,5′-bis(cyclopentylmethyl)-3,3′-dimethyl-2,2′-binaphthyl-1,1′,6,6′,7,7′-hexaol]
[6]
  Microsomal Stability (T = 1 h): 75%
B6Bcl-2 transgenic mice; 72 μmol/kg and even 120 μmol/kg
  signs of toxicity: no significant signs of toxicity
B6Bcl-2 transgenic mice; Bcl-2 transgenic mouse, single ip injection 72 μmol/kg
  Tox: 1+
PC3ML cells; ATP-LITE assay, read-out: EC50 PC3ML
  EC50: 11200 nM
H1299 cell line; NCI-H1299, ATP-LITE assay, read-out: EC50 H1299
  EC50: 10900 nM
BCL-XL [1]; Table 4
  1D-^1H NMR: +
Plasma stability
  Plasma stability (T = 1 h): 81%
[4]; NCI-H460, ATP-LITE assay, read-out: EC50 H460
  EC50: 1800 nM
[5]; Annexin V-FITC and propidium iodide assay, read-out: EC50 RS11846
  EC50: 4500 nM

## Cc1cc2c(C(=O)NC3Cc4ccccc4C3)c(O)c(O)cc2c(O)c1-c1c(C)cc2c(C(=O)NC3Cc4ccccc4C3)c(O)c(O)cc2c1O [Compound 8s, N^5,N^5′-bis(2,3-dihydro-1H-inden-2-yl)-1,1′,6,6′,7,7′-hexahydroxy-3,3′-dimethyl-2,2′-binaphthyl-5,5′-dicarboxamide]
Mcl-1
  IC50: 350 nM
[3]; heading: EC50 BP3
  EC50: 1100 nM
Bfl-1
  IC50: 670 nM
Bcl-2
  IC50: 700 nM
PC3ML cells; [8]
  EC50: 3000 nM
H1299 cell line; [9]
  EC50: 7100 nM
BCL-XL [1]; Table 3
  1D-^1H NMR: ++
BCL-XL [2]; read-out: IC50 FPA Bcl-XL
  IC50: 850 nM
[4]; NCI-H460, Table 3, ATP-LITE assay, read-out: EC50 H460
  EC50: 940 nM
[5]; [11]
  EC50: 4100 nM

## CN(C)CC[C@H](CSc1ccccc1)Nc1ccc(S(=O)(=O)NC(=O)c2ccc(N3CCN(Cc4ccccc4-c4ccc(Cl)cc4)CC3)cc2)cc1[N+](=O)[O-] [ABT-737, reference compound]
[3]
  cell activity against BP3 cell lines: no cell activity

## Cc1ccc(CC(=O)c2c(O)c(O)cc3c(O)c(-c4c(C)cc5c(C(=O)Cc6ccc(C)cc6)c(O)c(O)cc5c4O)c(C)cc23)cc1 [Compound XII, 1,1′-(1,1′,6,6′,7,7′-hexahydroxy-3,3′-dimethyl-2,2′-binaphthyl-5,5′-diyl)bis(2-p-tolylethanone)]
BCL-XL [7]
  times more potent than Apogossypol, ITC Bcl-XL: 40
PC3ML cells; read-out: PC3ML EC50, Table 9
  EC50: 1900 to 4600 nM
H1299 cell line; [12]
  EC50: 1700 nM
BCL-XL [1]
  1D ^1H-NMR Binding Assay (BCL-XL): ++
RS11846 cell line
  EC50: 2200 nM
[4]; NCI-H460, read-out: H460 EC50
  EC50: 820 nM
[4]; vs Apogossypol
  times more potent than Apogossypol, H460: 4-5
[5]; [13]
  EC50: 3000 to 5500 nM

## Cc1cc2c(C(=O)NCCc3ccccc3)c(O)c(O)cc2c(O)c1-c1c(C)cc2c(C(=O)NCCc3ccccc3)c(O)c(O)cc2c1O [Compound 8n, 1,1′,6,6′,7,7′-hexahydroxy-3,3′-dimethyl-N^5,N^5′-diphenethyl-2,2′-binaphthyl-5,5′-dicarboxamide]
Mcl-1
  IC50: 300 nM
[6]
  Microsomal Stability (T = 1 h): 60%
Bcl-2
  IC50: 150 nM
BCL-XL [1]; Table 3
  1D-^1H NMR: ++
Plasma stability
  Plasma stability (T = 1 h): 63%
BCL-XL [2]; read-out: IC50 FPA Bcl-XL
  IC50: 800 nM

## Cc1cc2c(C(=O)NCCc3ccc(Cl)cc3)c(O)c(O)cc2c(O)c1-c1c(C)cc2c(C(=O)NCCc3ccc(Cl)cc3)c(O)c(O)cc2c1O [Compound 8t, N^5,N^5′-bis(4-chlorophenethyl)-1,1′,6,6′,7,7′-hexahydroxy-3,3′-dimethyl-2,2′-binaphthyl-5,5′-dicarboxamide]
[3]
  EC50: 700 nM
BCL-XL [1]; Table 3
  1D-^1H NMR: ++
[4]; [10]
  EC50: 1300 nM
[5]; [11]
  EC50: 5100 nM

## Cc1cc2c(C(=O)Cc3cccc(Br)c3)c(O)c(O)cc2c(O)c1-c1c(C)cc2c(C(=O)Cc3cccc(Br)c3)c(O)c(O)cc2c1O [Compound XIII, 1,1′-(1,1′,6,6′,7,7′-hexahydroxy-3,3′-dimethyl-2,2′-binaphthyl-5,5′-diyl)bis(2-(3-bromophenyl)ethanone)]
PC3ML cells; read-out: PC3ML EC50, Table 9
  EC50: 3100 nM
H1299 cell line; [12]
  EC50: 2600 nM
BCL-XL [1]
  1D ^1H-NMR Binding Assay (BCL-XL): ++
BCL-XL [2]; FPA IC50 (BCL-XL), Table 9
  IC50: 1310 nM
RS11846 cell line
  EC50: 8400 nM
[4]; NCI-H460, read-out: H460 EC50
  EC50: 2700 nM
[5]; [13]
  EC50: 5300 nM
